Results taken from patent publication US20150291565A1, “INDOLE COMPOUNDS AND THEIR USE AS ANTIMICROBIALS” (Memorial Sloan-Kettering Cancer Center, priority 2012, published 2015).
Values after ≈ are worked out from the molar mass of the structure shown. Values joined by “and” are separate entries in the source; they are usually repeats but may differ in a detail not shown here. Equal values may be shown once. Read-outs that look alike come from different tables or passages of the source.

Legend:
MRSA [1] = experiment: Disk diffusion assay, zone of inhibition, MRSA; assay type: cell-based, Staphylococcus aureus
M. smegmatis (mc2155) = experiment: Disk diffusion assay, zone of inhibition, M. smegmatis; assay type: cell-based
[2] = tested on: M. smegmatis (mc2155) Beta-Galactosidase (B-gal) reporter gene; experiment: HTS screen with Beta-Galactosidase reporter gene in M. smegmatis; assay type: cell-based; conditions: Mycolicibacterium smegmatis
M. smegmatis Mc2155 = experiment: MIC against M. smegmatis Mc2155; assay type: cell-based; conditions: Mycolicibacterium smegmatis
MRSA [3] = experiment: MIC against MRSA; assay type: cell-based; conditions: Staphylococcus aureus
[4] = tested on: S. aureus ATCC 33591 (MRSA); experiment: Broth dilution MIC, S. aureus ATCC 33591; assay type: cell-based; conditions: for MIC: Staphylococcus aureus
S. aureus BAA-39 (MDR) = experiment: Broth dilution MIC, S. aureus BAA-39; assay type: cell-based; conditions: for MIC: Staphylococcus aureus, BAA39
[5] = tested on: S. pneumoniae ATCC 6301 (PSSP); experiment: Broth dilution MIC, S. pneumoniae ATCC 6301; assay type: cell-based; conditions: Streptococcus pneumoniae
[6] = tested on: S. pneumoniae ATCC 700674 (PRSP); experiment: Broth dilution MIC, S. pneumoniae ATCC 700674; assay type: cell-based; conditions: Streptococcus pneumoniae
[7] = tested on: E. faecium ATCC 700221 (VRE); experiment: Broth dilution MIC, E. faecium ATCC 700221; assay type: cell-based
E. coli ECM 1694 = experiment: Broth dilution MIC, E. coli ECM 1694; assay type: cell-based; conditions: Escherichia coli
E. coli ATCC 25922 = experiment: Broth dilution MIC, E. coli ATCC 25922; assay type: cell-based; conditions: Escherichia coli
K. pneumoniae ATCC 13883 = experiment: Broth dilution MIC, K. pneumoniae ATCC 13883; assay type: cell-based; conditions: Klebsiella pneumoniae
P. aeruginosa ATCC 9027 = experiment: Broth dilution MIC, P. aeruginosa ATCC 9027; assay type: cell-based; conditions: Pseudomonas aeruginosa
[8] = tested on: S. aureus (MRSA) (ATCC33591); experiment: Septicemia survival model in neutropenic CD1 mice, MRSA; assay type: in vivo
E. coli (ATCC 25922) = experiment: Septicemia survival model in neutropenic CD1 mice, E. coli; assay type: in vivo
M. tuberculosis = experiment: Testing against M. tuberculosis; assay type: cell-based; conditions: recent testing
[9] = tested on: methicillin-resistant S. aureus (ATCC 33591); experiment: Thigh infection model in neutropenic CD1 mice, MRSA; conditions: 24 hours; for Log reduction: vs vehicle
[10] = tested on: S. pneumoniae (ATCC 6303); experiment: Thigh infection model in neutropenic CD1 mice, S. pneumoniae; conditions: 24 hours; for Log reduction: vs vehicle
[11] = disk diffusion zone of inhibition
[12] = 10 mg/kg BID IP, listed as 356313, 10 mg/kg
[13] = 20 mg/kg BID IP, listed as 356313, 20 mg/kg

SMILES: c1cc(C2=NCCN2)ccc1Nc1ccc(-c2cc3ccc(C4=NCCN4)cc3[nH]2)cc1 [SKI-1]
- Average Zone Size MRSA (MRSA [1]): 11
- Zone Size MRSA (MRSA [1]; [11]): 11 mm
- Zone Size M. smegmatis (M. smegmatis (mc2155); [11]): 19.6 mm
- Average Zone Size MC2155 (n = 3) (M. smegmatis (mc2155); n = 3): 12.3
- IC50 ([2]; suffix 250 not explained, read-out: IC50_250): 790 nM
- IC50 ([2]; suffix 251 not explained, read-out: IC50_251): 730 nM
- IC50 ([2]; suffix 381 not explained, read-out: IC50_381): 2540 nM
- IC50 ([2]; suffix 569 not explained, read-out: IC50_569): 3670 nM
- MIC (M. smegmatis Mc2155): 0.2 µM (≈ 0.0841 µg/mL)
- MIC (MRSA [3]): 9.2 µM (≈ 3.87 µg/mL)
- MIC ([4]; Table 1, range 64 down to 0.12 μg/ml, read-out: MIC S. aureus ATCC 33591): 0.25 µg/mL (≈ 0.595 µM)
- MIC ([4]; Table 2, broth dilution MIC in ug/ml, read-out: MIC S aureus ATCC 33591 MRSA): 0.25 µg/mL (≈ 0.595 µM)
- MIC ([4]; Table 4, broth dilution MIC according to CLSI standards (NAEJA), read-out: MIC MRSA S. aureus ATCC 33591): 0.12 µg/mL (≈ 0.285 µM)
- MIC S. aureus ATCC 33591 ([4]; Table 3, starting at 4 μg/ml): 0.25 µg/mL (≈ 0.595 µM)
- MIC (S. aureus BAA-39 (MDR); Table 1, range 64 down to 0.12 μg/ml, read-out: MIC S. aureus BAA-39): 0.25 µg/mL (≈ 0.595 µM)
- MIC (S. aureus BAA-39 (MDR); Table 2, broth dilution MIC in ug/ml, read-out: MIC S aureus BAA-39 MDR): 0.25 µg/mL (≈ 0.595 µM)
- MIC (S. aureus BAA-39 (MDR); Table 4, broth dilution MIC according to CLSI standards (NAEJA), read-out: MIC MDR S. aureus BAA-39): 0.25 µg/mL (≈ 0.595 µM)
- MIC S. aureus BAA-39 (S. aureus BAA-39 (MDR); Table 3, starting at 4 μg/ml): 0.25 µg/mL (≈ 0.595 µM)
- MIC ([5]; ATCC6301, Table 1, range 64 down to 0.12 μg/ml, read-out: MIC S. pneumoniae ATCC 6301): ≤ 0.12 µg/mL
- MIC ([5]; ATCC6301, Table 2, broth dilution MIC in ug/ml, read-out: MIC S pneumonia ATCC 6301 PSSP): 0.12 µg/mL (≈ 0.285 µM)
- MIC ([5]; ATCC6301, Table 3, starting at 4 μg/ml, read-out: MIC S. pneumoniae ATCC 6301): 0.12 µg/mL (≈ 0.285 µM)
- MIC ([5]; ATCC6301, Table 4, broth dilution MIC according to CLSI standards (NAEJA), read-out: MIC PSSP S. pneumoniae ATCC 6301): 0.12 µg/mL (≈ 0.285 µM)
- MIC ([6]; Table 1, range 64 down to 0.12 μg/ml, read-out: MIC S. pneumoniae ATCC 700674): ≤ 0.12 µg/mL
- MIC ([6]; Table 2, broth dilution MIC in ug/ml, read-out: MIC S pneumonia ATCC 700674 PRSP): 0.12 µg/mL (≈ 0.285 µM)
- MIC ([6]; Table 3, starting at 4 μg/ml, read-out: MIC S. pneumoniae ATCC 700674): 0.12 µg/mL (≈ 0.285 µM)
- MIC ([6]; Table 4, broth dilution MIC according to CLSI standards (NAEJA), read-out: MIC PRSP S. pneumoniae ATCC 700674): 0.03 µg/mL (≈ 0.0713 µM)
- MIC ([7]; Enterococcus faecium, Table 1, range 64 down to 0.12 μg/ml, read-out: MIC E. faecium ATCC 700221): ≤ 0.12 µg/mL
- MIC ([7]; Enterococcus faecium, Table 3, starting at 4 μg/ml, read-out: MIC E. faecium ATCC 700221): 0.06 µg/mL (≈ 0.143 µM)
- MIC ([7]; Enterococcus faecium, Table 4, broth dilution MIC according to CLSI standards (NAEJA), read-out: MIC VRE E. faecium ATCC 700221): 0.03 µg/mL (≈ 0.0713 µM)
- MIC ([7]; Table 2, broth dilution MIC in ug/ml, read-out: MIC E faecium ATCC 700221 VRE): 0.06 µg/mL (≈ 0.143 µM)
- MIC (E. coli ECM 1694; ECM1694, Table 1, range 64 down to 0.12 μg/ml, read-out: MIC E. coli ECM 1694): 0.25 µg/mL (≈ 0.595 µM)
- MIC (E. coli ECM 1694; ECM1694, Table 2, broth dilution MIC in ug/ml, read-out: MIC E. coli ECM 1693): 0.25 µg/mL (≈ 0.595 µM)
- MIC (E. coli ECM 1694; ECM1694, Table 3, starting at 4 μg/ml, read-out: MIC E. coli ECM 1694): 0.5 µg/mL (≈ 1.19 µM)
- MIC (E. coli ECM 1694; ECM1694, Table 4, broth dilution MIC according to CLSI standards (NAEJA), read-out: MIC E. coli ECM 1694): 0.25 µg/mL (≈ 0.595 µM)
- MIC (E. coli ATCC 25922; ATCC 25921 / ATCC 25922, Table 2, broth dilution MIC in ug/ml, read-out: MIC E. coli ATCC 25921): 1 µg/mL (≈ 2.38 µM)
- MIC (E. coli ATCC 25922; ATCC25922, Table 1, range 64 down to 0.12 μg/ml, read-out: MIC E. coli ATCC 25922): 1 µg/mL (≈ 2.38 µM)
- MIC (E. coli ATCC 25922; ATCC25922, Table 4, broth dilution MIC according to CLSI standards (NAEJA), read-out: MIC E. coli ATCC 25922): 0.5 µg/mL (≈ 1.19 µM)
- MIC (K. pneumoniae ATCC 13883; ATCC13883, Table 1, range 64 down to 0.12 μg/ml, read-out: MIC K. pneumoniae ATCC 13883): 1 µg/mL (≈ 2.38 µM)
- MIC (K. pneumoniae ATCC 13883; ATCC13883, Table 2, broth dilution MIC in ug/ml, read-out: MIC K pneumonia ATCC 13883): 1 µg/mL (≈ 2.38 µM)
- MIC (K. pneumoniae ATCC 13883; ATCC13883, Table 4, broth dilution MIC according to CLSI standards (NAEJA), read-out: MIC K. pneumoniae ATCC 13883): 0.5 µg/mL (≈ 1.19 µM)
- MIC (P. aeruginosa ATCC 9027; ATCC 9026 / ATCC 9027, Table 2, broth dilution MIC in ug/ml, read-out: MIC P aeruginosa ATCC 9026): 1 µg/mL (≈ 2.38 µM)
- MIC (P. aeruginosa ATCC 9027; ATCC9027, Table 1, range 64 down to 0.12 μg/ml, read-out: MIC P. aeruginosa ATCC 9027): 1 µg/mL (≈ 2.38 µM)
- MIC (P. aeruginosa ATCC 9027; ATCC9027, Table 4, broth dilution MIC according to CLSI standards (NAEJA), read-out: MIC P. aeruginosa ATCC 9027): 0.5 µg/mL (≈ 1.19 µM)
- Day by which all the mice died ([8]; 10 mg/kg): ≤ 3 days
- Percent Survival Day 1 ([8]; 10 mg/kg BID IP): 100%
- Percent Survival Day 2 ([8]; 10 mg/kg BID IP): 100%
- Percent Survival Day 3 ([8]; 10 mg/kg BID IP): 0%
- Percent Survival Day 4 ([8]; 10 mg/kg BID IP): 0%
- Percent Survival Day 5 ([8]; 10 mg/kg BID IP): 0%
- Percent Survival Day 6 ([8]; 10 mg/kg BID IP): 0%
- Percent Survival Day 7 ([8]; 10 mg/kg BID IP): 0%
- Day by which all the mice died ([8]; 20 mg/kg): ≤ 4 days
- Percent Survival Day 1 ([8]; 20 mg/kg BID IP): 100%
- Percent Survival Day 2 ([8]; 20 mg/kg BID IP): 100%
- Percent Survival Day 3 ([8]; 20 mg/kg BID IP): 80%
- Percent Survival Day 4 ([8]; 20 mg/kg BID IP): 0%
- Percent Survival Day 5 ([8]; 20 mg/kg BID IP): 0%
- Percent Survival Day 6 ([8]; 20 mg/kg BID IP): 0%
- Percent Survival Day 7 ([8]; 20 mg/kg BID IP): 0%
- Day by which all the mice died (E. coli (ATCC 25922); 10 mg/kg): ≤ 3 days
- Percent Survival Day 1 (E. coli (ATCC 25922); 10 mg/kg BID IP): 100%
- Percent Survival Day 2 (E. coli (ATCC 25922); 10 mg/kg BID IP): 60%
- Percent Survival Day 3 (E. coli (ATCC 25922); 10 mg/kg BID IP): 0%
- Percent Survival Day 4 (E. coli (ATCC 25922); 10 mg/kg BID IP): 0%
- Percent Survival Day 5 (E. coli (ATCC 25922); 10 mg/kg BID IP): 0%
- Percent Survival Day 6 (E. coli (ATCC 25922); 10 mg/kg BID IP): 0%
- Percent Survival Day 7 (E. coli (ATCC 25922); 10 mg/kg BID IP): 0%
- Day by which all the mice died (E. coli (ATCC 25922); 20 mg/kg): ≤ 4 days
- Percent Survival Day 1 (E. coli (ATCC 25922); 20 mg/kg BID IP): 100%
- Percent Survival Day 2 (E. coli (ATCC 25922); 20 mg/kg BID IP): 80%
- Percent Survival Day 3 (E. coli (ATCC 25922); 20 mg/kg BID IP): 60%
- Percent Survival Day 4 (E. coli (ATCC 25922); 20 mg/kg BID IP): 0%
- Percent Survival Day 5 (E. coli (ATCC 25922); 20 mg/kg BID IP): 0%
- Percent Survival Day 6 (E. coli (ATCC 25922); 20 mg/kg BID IP): 0%
- Percent Survival Day 7 (E. coli (ATCC 25922); 20 mg/kg BID IP): 0%
- Activity against M. tuberculosis (M. tuberculosis): comparable to that observed for M. smegmatis
- Mean bacterial tissue burden (log10/thigh) ([9]; 10 mg/kg BID IP): 8.3106 log10/thigh
- Log reduction [9, 12]: 0.14 Log and 0.1382 Log
- Mean bacterial tissue burden (log10/thigh) ([9]; 20 mg/kg BID IP): 7.7428 log10/thigh
- Log reduction [9, 13]: 0.71 Log and 0.7060 Log
- Mean bacterial tissue burden (log10/thigh) ([10]; 10 mg/kg BID IP): 6.7143 log10/thigh
- Log reduction [10, 12]: 2.40 Log and 2.3984 Log
- Mean bacterial tissue burden (log10/thigh) ([10]; 20 mg/kg BID IP): 5.6260 log10/thigh
- Log reduction [10, 13]: 3.49 Log and 3.4867 Log
